What was measured:
[1] = tested on: Vitis vinifera; assay: Toxicity in Vitis vinifera cv. Pinot noir assessed as effect on gas exchanges at 1.2 to 30 mM measured 14 days post compound application; assay type: organism-based; settings: in vivo, 336 h, 30000 µM
[2] = tested on: Vitis vinifera; assay: Toxicity in Vitis vinifera cv. Pinot noir assessed as effect on gas exchanges at 1.2 to 30 mM measured 10 days post compound application; assay type: organism-based; settings: in vivo, 240 h, 30000 µM
[3] = tested on: Vitis vinifera; assay: Inhibition of photosynthesis in Vitis vinifera cv. Pinot noir assessed as intercellular CO2 concentration-saturated net CO2 assimilation rate at 6 mM measured 7 days post compound application (reference value: 11.3 +/- 0.8 umol/m2/s); assay type: organism-based; settings: in vivo, 168 h, 6000 µM
[4] = tested on: Vitis vinifera; assay: Inhibition of photosynthesis in Vitis vinifera cv. Pinot noir assessed as CO2 compensation point at 1.2 mM measured 7 days post compound application (reference value: 74.8 +/- 12.7 umol/mol); assay type: organism-based; settings: in vivo, 168 h, 1200 µM
[5] = Inhibition of photosynthesis in Vitis vinifera cv. Pinot noir assessed as reduction in net photosynthetic rate at 30 mM measured 7 days post compound application; assay type: organism-based; settings: in vivo
[6] = tested on: Vitis vinifera; assay: Inhibition of photosynthesis in Vitis vinifera cv. Pinot noir assessed as ratio of apparent quantum yield of photo system 2 to apparent quantum yield yield of CO2 fixation at 1.2 mM measured 7 days post compound application (reference value: 10 +/- 1.7 no unit); assay type: organism-based; settings: in vivo, 168 h, 1200 µM
[7] = tested on: Vitis vinifera; assay: Inhibition of photosynthesis in Vitis vinifera cv. Pinot noir assessed as reduction in net photosynthetic rate at 30 mM measured 1 day post compound application; assay type: organism-based; settings: in vivo, 24 h, 30000 µM
[8] = tested on: Vitis vinifera; assay: Inhibition of photosynthesis in Vitis vinifera cv. Pinot noir assessed as ratio of apparent quantum yield of photo system 2 to apparent quantum yield yield of CO2 fixation at 30 mM measured 7 days post compound application (reference value: 10 +/- 1.7 no unit); assay type: organism-based; settings: in vivo, 168 h, 30000 µM
[9] = tested on: Vitis vinifera; assay: Effect on photochemical quenching in Vitis vinifera cv. Pinot noir at 1.2 to 30 mM measured 7 days post compound application; assay type: ADME, organism-based; settings: in vivo, 168 h, 30000 µM
[10] = tested on: Vitis vinifera; assay: Effect on […] CO2 level in Vitis vinifera cv. Pinot noir at 1.2 to 30 mM measured 1 day post compound application; assay type: ADME, organism-based; settings: in vivo, 24 h, 30000 µM
[11] = Inhibition of photosynthesis in Vitis vinifera cv. Pinot noir assessed as reduction in Hill reaction activity 6 mM measured 7 days post compound application relative to untreated control; assay type: organism-based; settings: in vivo
[12] = tested on: Vitis vinifera; assay: Inhibition of photosynthesis in Vitis vinifera cv. Pinot noir assessed as in vivo maximum rate of rubisco carboxylation at 1.2 mM measured 7 days post compound application (reference value: 42.8 +/- 3.2 umol/m2/s); assay type: organism-based; settings: 168 h, 1200 µM
[13] = Inhibition of photosynthesis in Vitis vinifera cv. Pinot noir assessed as change in light compensation point at 6 mM measured 7 days post compound application; assay type: organism-based; settings: in vivo
[14] = tested on: Vitis vinifera; assay: Inhibition of photosynthesis in Vitis vinifera cv. Pinot noir assessed as in vivo maximum rate of rubisco carboxylation at 6 mM measured 7 days post compound application (reference value: 42.8 +/- 3.2 umol/m2/s); assay type: organism-based; settings: 168 h, 6000 µM
[15] = tested on: Vitis vinifera; assay: Inhibition of photosynthesis in Vitis vinifera cv. Pinot noir assessed as light compensation point at 6 mM measured 7 days post compound application (reference value: 22.6 +/- 3.1 umol/mol); assay type: organism-based; settings: in vivo, 168 h, 6000 µM
[16] = tested on: Vitis vinifera; assay: Increase in […] CO2 level in Vitis vinifera cv. Pinot noir at 30 mM measured 7 days post compound application; assay type: ADME, organism-based; settings: in vivo, 168 h, 30000 µM
[17] = tested on: Vitis vinifera; assay: Inhibition of photosynthesis in Vitis vinifera cv. Pinot noir assessed as apparent quantum yield of CO2 fixation at 1.2 mM measured 7 days post compound application (reference value: 0.07 +/- 0.01 no unit) umol/m2/s); assay type: organism-based; settings: in vivo, 168 h, 1200 µM
[18] = tested on: Vitis vinifera; assay: Increase in […] CO2 level in Vitis vinifera cv. Pinot noir at 6 mM measured 7 days post compound application; assay type: ADME, organism-based; settings: in vivo, 168 h, 6000 µM
[19] = tested on: Vitis vinifera; assay: Inhibition of photosynthesis in Vitis vinifera cv. Pinot noir assessed as dark respiration at 30 mM measured 7 days post compound application (reference value: 1.6 +/- 0.0 umol/m2/s); assay type: organism-based; settings: in vivo, 168 h, 30000 µM
[20] = tested on: Vitis vinifera; assay: Inhibition of photosynthesis in Vitis vinifera cv. Pinot noir assessed as PPFD-saturated net CO2 assimilation rate at 6 mM measured 7 days post compound application (reference value: 8.9 +/- 1.5 umol/m2/s); assay type: organism-based; settings: in vivo, 168 h, 6000 µM
[21] = tested on: Vitis vinifera; assay: Inhibition of photosynthesis in Vitis vinifera cv. Pinot noir assessed as mitochondrial respiration in the light at 1.2 mM measured 7 days post compound application (reference value: 3.2 +/- 0.5 umol/m2/s); assay type: organism-based; settings: in vivo, 168 h, 1200 µM
[22] = tested on: Vitis vinifera; assay: Inhibition of photosynthesis in Vitis vinifera cv. Pinot noir assessed as increase in ratio of apparent quantum yield of photo system 2 to apparent quantum yield yield of CO2 fixation at 1.2 to 30 mM measured 7 days post compound application; assay type: organism-based; parameters: scale not given: the % may be the effect or the level left; settings: in vivo, 168 h, 30000 µM
[23] = tested on: Vitis vinifera; assay: Inhibition of photosynthesis in Vitis vinifera cv. Pinot noir assessed as intercellular CO2 concentration-saturated net CO2 assimilation rate at 30 mM measured 7 days post compound application (reference value: 11.3 +/- 0.8 umol/m2/s); assay type: organism-based; settings: in vivo, 168 h, 30000 µM
[24] = tested on: Vitis vinifera; assay: Inhibition of photosynthesis in Vitis vinifera cv. Pinot noir assessed as intercellular CO2 concentration-saturated net CO2 assimilation rate at 1.2 mM measured 7 days post compound application (reference value: 11.3 +/- 0.8 umol/m2/s); assay type: organism-based; settings: in vivo, 168 h, 1200 µM
[25] = tested on: Vitis vinifera; assay: Inhibition of photosynthesis in Vitis vinifera cv. Pinot noir assessed as mitochondrial respiration in the light at 6 mM measured 7 days post compound application (reference value: 3.2 +/- 0.5 umol/m2/s); assay type: organism-based; settings: in vivo, 168 h, 6000 µM
[26] = tested on: photosystem 2; assay: Inhibition of photosynthesis in Vitis vinifera cv. Pinot noir assessed as reduction in relative quantum yield of photo system 2 at 1.2 mM measured 7 days post compound application relative to untreated control; assay type: organism-based; settings: in vivo
[27] = tested on: photosystem 2; assay: Inhibition of photosynthesis in Vitis vinifera cv. Pinot noir assessed as reduction in relative quantum yield of photo system 2 at 6 mM measured 7 days post compound application relative to untreated control; assay type: organism-based; settings: in vivo

SMILES: N#Cc1c[nH]cc1-c1cccc2c1OC(F)(F)O2 [FLUDIOXONIL]
- Activity [1]: Non-toxic
- Activity [2]: Non-toxic
- Activity [3]: 11.5 micromol/m2/s
- Activity [4]: 84.9 umol/mol
- inhibition at 168 h, 30000 µM [5]: 38%
- Ratio [6]: 17.4
- Activity [7]: Toxic
- Ratio [8]: 19.2
- Activity [9]: Non-toxic
- Activity [10]: Non-toxic
- inhibition at 168 h, 6000 µM [11]: 36%
- Activity [12]: 38 micromol/m2/s
- inhibition at 168 h, 6000 µM [13]: 20%
- Activity [14]: 44.1 micromol/m2/s
- Activity [15]: 27.7 umol/mol
- Activity [16]: 20%
- Activity [17]: 0.01
- Activity [18]: 20%
- Activity [19]: 1.4 micromol/m2/s
- Activity [20]: 7.6 micromol/m2/s
- Activity [21]: 3.2 micromol/m2/s
- Activity [22]: 50%
- Activity [23]: 12.2 micromol/m2/s
- Activity [24]: 11.3 micromol/m2/s
- Activity [25]: 3.6 micromol/m2/s
- inhibition at 168 h, 1200 µM [26]: 10%
- inhibition at 168 h, 6000 µM [27]: 7%

Reference: ChEMBL document CHEMBL3044966, “Photosynthesis limitations of grapevine after treatment with the fungicide fludioxonil” (J Agric Food Chem, 2008)
